The values below come from ChEMBL document CHEMBL4428048, “Discovery of Novel Polo-Like Kinase 1 Polo-Box Domain Inhibitors to Induce Mitotic Arrest in Tumor Cells” (J Med Chem, 2016).

The source made the active and inactive calls. The calls are words filed in the database; no cut-off is given here.

Test [1] deals with HeLa. Description: Growth inhibition of human HeLa cells at 50 uM after 72 hrs by MTT assay relative to control. In kind it is functional. Particulars: read-out: GI. (In general: Tetrazolium assays rely on reduction of a dye to a coloured formazan, in cell work by metabolically active cells.)
The test system of test [2] is RKO. The test can be described thus: Growth inhibition of human RKO cells at 50 uM after 72 hrs by MTT assay relative to control. The format is functional. Particulars: read-out: GI.
For test [3], the system named is HeLa. The test can be described thus: Induction of mitotic arrest in human HeLa cells assessed as increase in level of 4N DNA cells at 40 uM after 24 hrs by propidium iodide staining-based FACS analysis. The format is functional, cell-based. (In general: Flow cytometry measures light scatter and fluorescence of single cells or particles in a stream.)
For test [4], the system named is HeLa. The test can be described thus: Induction of mitotic arrest in human HeLa cells assessed as increase in level of 4N DNA cells after 24 hrs by propidium iodide staining-based FACS analysis. The format is functional, cell-based.
The test system of test [5] is HeLa. Description: Induction of mitotic arrest in human HeLa cells assessed as increase in level of 4N DNA cells at 30 uM after 24 hrs by propidium iodide staining-based FACS analysis. In kind it is functional, cell-based.
The subject of test [6] is U2OS. Description: cells. The settings on record: Homo sapiens, 72 h.
Description: Growth inhibition of human U2OS cells after 72 hrs by MTT assay
For test [7], the target named is Serine/threonine-protein kinase PLK2 (Homo sapiens, UniProt Q9NYY3). Description: Binding affinity to GST-tagged PLK2 PBD (355 to 685 residues) (unknown origin) by NT-647 dye-based microscale thermophoresis analysis. (In MST a laser heats a spot of the sample, and binding alters the fluorescence response.)
Sequence of Serine/threonine-protein kinase PLK2 (Q9NYY3 whole entry, the tested form may be a part): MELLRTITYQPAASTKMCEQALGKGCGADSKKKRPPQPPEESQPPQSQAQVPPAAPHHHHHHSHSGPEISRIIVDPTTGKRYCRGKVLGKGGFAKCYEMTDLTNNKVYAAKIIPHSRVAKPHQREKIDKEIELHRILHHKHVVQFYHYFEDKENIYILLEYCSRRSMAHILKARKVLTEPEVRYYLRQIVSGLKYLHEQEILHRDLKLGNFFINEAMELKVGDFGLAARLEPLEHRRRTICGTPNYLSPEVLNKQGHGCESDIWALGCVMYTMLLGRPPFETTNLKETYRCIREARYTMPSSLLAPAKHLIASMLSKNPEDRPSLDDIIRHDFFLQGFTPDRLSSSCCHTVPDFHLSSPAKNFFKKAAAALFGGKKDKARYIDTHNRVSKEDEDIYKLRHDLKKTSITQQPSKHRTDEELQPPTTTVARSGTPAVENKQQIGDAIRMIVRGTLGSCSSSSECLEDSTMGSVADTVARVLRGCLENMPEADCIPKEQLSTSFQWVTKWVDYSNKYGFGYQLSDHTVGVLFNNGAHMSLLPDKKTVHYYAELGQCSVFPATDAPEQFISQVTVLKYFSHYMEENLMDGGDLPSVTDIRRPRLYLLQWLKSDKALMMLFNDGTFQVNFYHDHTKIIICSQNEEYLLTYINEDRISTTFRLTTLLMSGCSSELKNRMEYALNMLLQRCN
Test [8] deals with RKO. Description: cells. Particulars: Homo sapiens, 72 h.
Description: Growth inhibition of human RKO cells after 72 hrs by MTT assay
Test [9] relates to HeLa. The test can be described thus: cells. The settings on record: Homo sapiens, 72 h.
Description: Growth inhibition of human HeLa cells after 72 hrs by MTT assay
For test [10], the system named is HeLa. Description: Induction of mitotic arrest in human HeLa cells assessed as increase in level of 4N DNA cells at 10 uM after 24 hrs by propidium iodide staining-based FACS analysis. In kind it is functional, cell-based.
Test [11] has as its system U2OS. Description: Growth inhibition of human U2OS cells at 50 uM after 72 hrs by MTT assay relative to control. Particulars: read-out: GI. In kind it is functional.
The target in test [12] is Serine/threonine-protein kinase PLK1 (Homo sapiens, UniProt P53350, W414A). The test can be described thus: Binding affinity to GST-tagged PLK1 PBD W414A mutant (unknown origin) by NT-647 dye-based microscale thermophoresis analysis.
Sequence of Serine/threonine-protein kinase PLK1 (Homo sapiens, UniProt P53350, W414A) (P53350 2-603 W414A limits assumed): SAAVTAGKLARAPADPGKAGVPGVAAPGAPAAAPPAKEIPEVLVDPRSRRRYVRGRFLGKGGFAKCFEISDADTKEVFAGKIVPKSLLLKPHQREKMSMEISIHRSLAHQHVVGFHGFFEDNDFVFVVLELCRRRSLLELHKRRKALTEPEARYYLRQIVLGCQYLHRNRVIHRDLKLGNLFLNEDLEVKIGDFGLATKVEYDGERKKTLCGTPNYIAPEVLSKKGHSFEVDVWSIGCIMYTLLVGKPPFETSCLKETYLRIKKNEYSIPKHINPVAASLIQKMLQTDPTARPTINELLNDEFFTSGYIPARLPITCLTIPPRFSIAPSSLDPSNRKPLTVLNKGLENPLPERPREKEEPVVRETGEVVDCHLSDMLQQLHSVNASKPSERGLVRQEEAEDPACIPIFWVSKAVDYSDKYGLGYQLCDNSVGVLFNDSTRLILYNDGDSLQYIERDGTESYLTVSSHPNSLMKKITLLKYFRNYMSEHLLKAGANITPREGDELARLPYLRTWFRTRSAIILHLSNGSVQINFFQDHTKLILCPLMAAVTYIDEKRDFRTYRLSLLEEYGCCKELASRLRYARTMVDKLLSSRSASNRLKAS
The target of test [13] is Serine/threonine-protein kinase PLK1 (Homo sapiens, UniProt P53350). The test can be described thus: Binding affinity to GST-tagged PLK1 PBD (327 to 603 residues) (unknown origin) by NT-647 dye-based microscale thermophoresis analysis.
Sequence of Serine/threonine-protein kinase PLK1 (Homo sapiens, UniProt P53350) (P53350 whole entry, the tested form may be a part): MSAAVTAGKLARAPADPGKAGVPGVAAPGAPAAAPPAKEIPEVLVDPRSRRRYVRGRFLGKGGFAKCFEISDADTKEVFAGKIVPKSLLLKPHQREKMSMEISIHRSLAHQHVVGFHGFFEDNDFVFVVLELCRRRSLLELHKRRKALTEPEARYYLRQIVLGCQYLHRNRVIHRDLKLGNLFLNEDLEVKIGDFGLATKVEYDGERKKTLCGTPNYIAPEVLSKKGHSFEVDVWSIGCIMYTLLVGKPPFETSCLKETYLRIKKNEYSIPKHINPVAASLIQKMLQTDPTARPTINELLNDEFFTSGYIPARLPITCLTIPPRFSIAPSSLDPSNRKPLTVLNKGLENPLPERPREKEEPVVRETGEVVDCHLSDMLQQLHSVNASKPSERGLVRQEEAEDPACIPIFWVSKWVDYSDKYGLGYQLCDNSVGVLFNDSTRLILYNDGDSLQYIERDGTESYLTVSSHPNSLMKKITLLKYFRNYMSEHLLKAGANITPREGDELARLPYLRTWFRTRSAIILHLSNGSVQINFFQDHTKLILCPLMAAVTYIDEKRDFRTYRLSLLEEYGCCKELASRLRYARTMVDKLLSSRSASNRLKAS
Test [14] relates to RKO. Description: Growth inhibition of human RKO cells at 100 uM after 72 hrs by MTT assay relative to control. The format is functional. The settings on record: read-out: GI.
The test system of test [15] is HeLa. Description: Growth inhibition of human HeLa cells at 100 uM after 72 hrs by MTT assay relative to control. Particulars: read-out: GI. In kind it is functional.
Test [16] relates to HeLa. The test can be described thus: Induction of mitotic arrest in human HeLa cells by propidium iodide staining-based FACS analysis. The format is functional, cell-based.
Test [17] concerns RKO. The test can be described thus: Growth inhibition of human RKO cells at 20 uM after 72 hrs by MTT assay relative to control. In kind it is functional. The settings on record: read-out: GI.
For test [18], the system named is U2OS. Description: Growth inhibition of human U2OS cells at 20 uM after 72 hrs by MTT assay relative to control. The format is functional. Particulars: read-out: GI.
Test [19] relates to HeLa. Description: Induction of mitotic arrest in human HeLa cells assessed as increase in level of 4N DNA cells at 5 uM after 24 hrs by propidium iodide staining-based FACS analysis. In kind it is functional, cell-based.
For test [20], the system named is HeLa. The test can be described thus: Induction of mitotic arrest in human HeLa cells assessed as 4N DNA cells at 100 uM after 24 hrs by propidium iodide staining-based FACS analysis relative to control. In kind it is functional.
For test [21], the system named is U2OS. Description: Growth inhibition of human U2OS cells at 100 uM after 72 hrs by MTT assay relative to control. The format is functional. The settings on record: read-out: GI.

By EC50 is commonly meant the concentration at which the effect is half-maximal. What is called Kd is the equilibrium constant for the complex coming apart. Low values mean tighter binding, high ones weaker binding.

As for `CCCc1oc2ccc(NS(=O)(=O)c3cccs3)cc2c1C(=O)OCC`, the inhibition of growth at 50 µM in the test on HeLa [1] came out at 31.8%; in the test with RKO [2], 39.4%. Besides, the result in the test on HeLa [3] was Active. Besides, the EC50 in the test with HeLa [4] was determined as 44.8 µM.
Consider `CCN(CC)c1ccc(NC(=O)/C=C/c2cccc3ccccc23)cc1`, for which the inhibition of growth at 50 µM was 31.2% in the test on HeLa [1] and 34% with RKO [2]. For the same compound, the result with HeLa [5] was Active. The same compound gave an EC50 with U2OS [6] of 18.1 µM.
On to `Cc1ccc(/C(=N/S(=O)(=O)c2ccccc2)NC(=S)Nc2ccc([N+](=O)[O-])cc2)cc1`, for which, in the test with HeLa [5], the result was Active. The compound further displayed a Kd in [7] of 159 µM. In the test on HeLa [4], the Activity result is “Dose-dependent effect” and the EC50 was 21.1 µM.
In the case of `CCn1c2ccccc2c2cc(/C=N/NC(=O)c3cccc(Cl)c3)ccc21`, the 50% effective concentration (EC50) came to 10 µM in the test with RKO [8], 15.6 µM with HeLa [9] and 4.4 µM in the test with HeLa [4]. The result in the test with HeLa [10] was Active. Further, the inhibition of growth at 50 µM in the test with U2OS [11] was 42.2%.
`Cc1ccccc1OCC(=O)N/N=C/c1ccc2c(c1)OCCO2`: the figures for the Kd in test [12], in test [7] and in test [13] were 412 µM, 197 µM and 44.2 µM, respectively. Also, the outcome in the test with HeLa [5] was Active. For the same compound, the EC50 with U2OS [6] turned out to be 37.8 µM; with HeLa [4], 25.6 µM. The figures for the inhibition of growth at 100 µM in the test on RKO [14] and in the test with HeLa [15] were 35.3% and 40.2%, respectively.
As to `CC1=C/C(=N/OC(=O)c2ccccc2C)C(C)=CC1=O`, the EC50 in the test with HeLa [16] was determined as 15 µM.
With `O=C(CCn1c2ccccc2c2ccccc21)N/N=C/c1cc(Cl)cc(Cl)c1`, the concentration giving a half-maximal response (EC50) in the test with RKO [8] turned out to be 19.2 µM; with HeLa [4], 20.4 µM. Moreover, the inhibition of growth at 50 µM came to 45.7% in the test on HeLa [1] and 48.8% in the test on U2OS [11]. In the test on HeLa [5], the result was Active. Moreover, the Kd in [7] worked out at 210 µM.
In the case of `CCc1ccc(/C=N/NC(=O)c2sc3cc(Cl)ccc3c2Cl)s1`, the outcome in the test on HeLa [5] was Active. Further, in the test with HeLa [4], the EC50 came out at 8.6 µM.
In the case of `O=C(N/N=C/c1ccc(Br)cc1)c1n[nH]c2c1CCCC2`, the EC50 with HeLa [9] came out at 2.6 µM. The figures for the inhibition of growth at 20 µM with RKO [17] and with U2OS [18] were 37% and 59.8%, respectively. Moreover, in the test on HeLa [19], the result was Active.
In the case of `CC1=CC(=O)C(C(C)C)=C/C1=N/OC(=O)c1ccccc1C`, in the test with HeLa [20], the Activity was 36%. In addition, binding in test [7] was put at a Kd of 87.3 µM.
For `CCn1c2ccccc2c2cc(/C=N/NC(=O)c3ccccc3[N+](=O)[O-])ccc21`, the EC50 in the test on HeLa [9] amounted to 15 µM; with HeLa [4], 5.3 µM. Besides, the figures for the inhibition of growth at 50 µM in the test on RKO [2] and in the test on U2OS [11] were 43% and 41.7%, respectively. Also, the outcome in the test on HeLa [10] was Active.
In the case of `Cc1ccc2nc(C)cc(SCC(=O)N/N=C/c3ccc(Cl)cc3)c2c1`, the result with HeLa [5] was Active. In addition, the inhibition of growth at 100 µM in the test with RKO [14] amounted to 34%; in the test with U2OS [21], 25.5%; with HeLa [15] it was 36.7%. In addition, the EC50 in the test with HeLa [4] amounted to 18.7 µM.
